Test results as given in ChEMBL document CHEMBL2440076, “New triarylpyrazoles as broad-spectrum anticancer agents: design, synthesis, and biological evaluation” (Eur J Med Chem, 2013).

Tests used:
Type in all cases: functional
M14 = test: Growth inhibition of human M14 cells assessed as cell growth at 5X10'-5 M after 48 hrs by sulforhodamine B assay; settings: M14, 48 h, read-out: Activity
SF-268 [1] = test: Growth inhibition of human SF268 cells assessed as cell growth at 5X10'-5 M after 48 hrs by sulforhodamine B assay; settings: SF-268, 48 h, read-out: Activity
A549 [2] = test: Growth inhibition of human A549/ATCC cells assessed as cell growth at 5X10'-5 M after 48 hrs by sulforhodamine B assay; settings: A549, 48 h, read-out: Activity
MOLT-4 [3] = test: Growth inhibition of human MOLT4 cells assessed as cell growth at 5X10'-5 M after 48 hrs by sulforhodamine B assay; settings: MOLT-4, 48 h, read-out: Activity
RXF 393 = test: Growth inhibition of human RXF393 cells assessed as cell growth at 5X10'-6 M after 48 hrs by sulforhodamine B assay; settings: RXF 393, 48 h, read-out: Activity
ACHN = test: Growth inhibition of human ACHN cells assessed as cell growth at 5X10'-6 M after 48 hrs by sulforhodamine B assay; settings: read-out: Activity
SK-OV-3 = test: Growth inhibition of human SKOV3 cells assessed as cell growth at 5X10'-6 M after 48 hrs by sulforhodamine B assay; settings: SK-OV-3, 48 h, read-out: Activity
OVCAR-5 [4] = test: Growth inhibition of human OVCAR5 cells assessed as cell growth at 5X10'-6 M after 48 hrs by sulforhodamine B assay; settings: OVCAR-5, 48 h, read-out: Activity
UACC-257 [5] = test: Growth inhibition of human UACC257 cells assessed as cell growth at 5X10'-6 M after 48 hrs by sulforhodamine B assay; settings: UACC-257, 48 h, read-out: Activity
SK-MEL-28 [6] = test: Growth inhibition of human SK-MEL-28 cells assessed as cell growth at 5X10'-6 M after 48 hrs by sulforhodamine B assay; settings: SK-MEL-28, 48 h, read-out: Activity
SK-MEL-2 [7] = test: Growth inhibition of human SK-MEL-2 cells assessed as cell growth at 5X10'-6 M after 48 hrs by sulforhodamine B assay; settings: SK-MEL-2, 48 h, read-out: Activity
Malme-3M = test: Growth inhibition of human MALME-3M cells assessed as cell growth at 5X10'-6 M after 48 hrs by sulforhodamine B assay; settings: read-out: Activity
MOLT-4 [8] = test: Growth inhibition of human MOLT4 cells assessed as cell growth at 5X10'-9 M after 48 hrs by sulforhodamine B assay; settings: MOLT-4, 48 h, read-out: Activity
SF-268 [9] = test: Growth inhibition of human SF268 cells assessed as cell growth at 5X10'-6 M after 48 hrs by sulforhodamine B assay; settings: SF-268, 48 h, read-out: Activity
HT-29 = test: Growth inhibition of human HT-29 cells assessed as cell growth at 5X10'-6 M after 48 hrs by sulforhodamine B assay; settings: HT-29, 48 h, read-out: Activity
NCI-H226 = test: Growth inhibition of human NCI-H226 cells assessed as cell growth at 5X10'-6 M after 48 hrs by sulforhodamine B assay; settings: NCI-H226, 48 h, read-out: Activity
A549 [10] = test: Growth inhibition of human A549/ATCC cells assessed as cell growth at 5X10'-6 M after 48 hrs by sulforhodamine B assay; settings: A549, 48 h, read-out: Activity
MOLT-4 [11] = test: Growth inhibition of human MOLT4 cells assessed as cell growth at 5X10'-6 M after 48 hrs by sulforhodamine B assay; settings: MOLT-4, 48 h, read-out: Activity
[12] = Growth inhibition of human Hs 578T cells assessed as cell growth at 5X10'-7 M after 48 hrs by sulforhodamine B assay; settings: read-out: Activity
CAKI-1 = test: Growth inhibition of human CAKI-1 cells assessed as cell growth at 5X10'-7 M after 48 hrs by sulforhodamine B assay; settings: CAKI-1, 48 h, read-out: Activity
SK-MEL-28 [13] = test: Growth inhibition of human SK-MEL-28 cells assessed as cell growth at 5X10'-7 M after 48 hrs by sulforhodamine B assay; settings: SK-MEL-28, 48 h, read-out: Activity
HCT-116 = test: Growth inhibition of human HCT116 cells assessed as cell growth at 5X10'-7 M after 48 hrs by sulforhodamine B assay; settings: HCT-116, 48 h, read-out: Activity
HCT-15 = test: Growth inhibition of human HCT15 cells assessed as cell growth at 5X10'-7 M after 48 hrs by sulforhodamine B assay; settings: HCT-15, 48 h, read-out: Activity
NCI-H322M = test: Growth inhibition of human NCI-H322M cells assessed as cell growth at 5X10'-7 M after 48 hrs by sulforhodamine B assay; settings: read-out: Activity
TK-10 = test: Growth inhibition of human TK10 cells assessed as cell growth at 5X10'-8 M after 48 hrs by sulforhodamine B assay; settings: TK-10, 48 h, read-out: Activity
OVCAR-5 [14] = test: Growth inhibition of human OVCAR5 cells assessed as cell growth at 5X10'-8 M after 48 hrs by sulforhodamine B assay; settings: OVCAR-5, 48 h, read-out: Activity
UACC-62 [15] = test: Growth inhibition of human UACC62 cells assessed as cell growth at 5X10'-8 M after 48 hrs by sulforhodamine B assay; settings: UACC-62, 48 h, read-out: Activity
SK-MEL-2 [16] = test: Growth inhibition of human SK-MEL-2 cells assessed as cell growth at 5X10'-8 M after 48 hrs by sulforhodamine B assay; settings: SK-MEL-2, 48 h, read-out: Activity
BT-549 [17] = test: Growth inhibition of human BT549 cells assessed as cell growth at 5X10'-5 M after 48 hrs by sulforhodamine B assay; settings: BT-549, 48 h, read-out: Activity
OVCAR-5 [18] = test: Growth inhibition of human OVCAR5 cells assessed as cell growth at 5X10'-5 M after 48 hrs by sulforhodamine B assay; settings: OVCAR-5, 48 h, read-out: Activity
UACC-62 [19] = test: Growth inhibition of human UACC62 cells assessed as cell growth at 5X10'-5 M after 48 hrs by sulforhodamine B assay; settings: UACC-62, 48 h, read-out: Activity
BT-549 [20] = test: Growth inhibition of human BT549 cells assessed as cell growth at 5X10'-9 M after 48 hrs by sulforhodamine B assay; settings: BT-549, 48 h, read-out: Activity
SN12C = test: Growth inhibition of human SN12C cells assessed as cell growth at 5X10'-9 M after 48 hrs by sulforhodamine B assay; settings: read-out: Activity
OVCAR-8 = test: Growth inhibition of human OVCAR8 cells assessed as cell growth at 5X10'-9 M after 48 hrs by sulforhodamine B assay; settings: OVCAR-8, 48 h, read-out: Activity
IGROV-1 = test: Growth inhibition of human IGROV1 cells assessed as cell growth at 5X10'-9 M after 48 hrs by sulforhodamine B assay; settings: IGROV-1, 48 h, read-out: Activity
UACC-257 [21] = test: Growth inhibition of human UACC257 cells assessed as cell growth at 5X10'-9 M after 48 hrs by sulforhodamine B assay; settings: UACC-257, 48 h, read-out: Activity
LOX IMVI = test: Growth inhibition of human LOXIMVI cells assessed as cell growth at 5X10'-9 M after 48 hrs by sulforhodamine B assay; settings: read-out: Activity
U-251 = test: Growth inhibition of human U251 cells assessed as cell growth at 5X10'-9 M after 48 hrs by sulforhodamine B assay; settings: U-251, 48 h, read-out: Activity

Compound | growth at 50 µM (M14) [%] | growth at 50 µM (SF-268 [1]) [%] | growth at 50 µM (A549 [2]) [%] | growth at 50 µM (MOLT-4 [3]) [%] | growth at 5 µM (RXF 393) [%] | growth at 5 µM (ACHN) [%] | growth at 5 µM (SK-OV-3) [%] | growth at 5 µM (OVCAR-5 [4]) [%] | growth at 5 µM (UACC-257 [5]) [%] | growth at 5 µM (SK-MEL-28 [6]) [%] | growth at 5 µM (SK-MEL-2 [7]) [%] | growth at 5 µM (Malme-3M) [%] | growth at 0.005 µM (MOLT-4 [8]) [%] | growth at 5 µM (SF-268 [9]) [%] | growth at 5 µM (HT-29) [%] | growth at 5 µM (NCI-H226) [%] | growth at 5 µM (A549 [10]) [%] | growth at 5 µM (MOLT-4 [11]) [%] | growth at 0.5 µM [12] [%] | growth at 0.5 µM (CAKI-1) [%] | further results
COc1cc(-c2nn(-c3cccc(NC(=O)Nc4cc(C(F)(F)F)cc(C(F)(F)F)c4)c3)cc2-c2ccncc2)ccc1Cl | -28 | -43 | -65 | -11 | -51 | 2 | -39 | -36 | -40 | -78 | -73 | -47 | 104 | -40 | -68 | 7 | -31 | -4 | 79 | 80 | growth at 0.5 µM (SK-MEL-28 [13]): 89%; growth at 0.5 µM (HCT-116): 62%; growth at 0.5 µM (HCT-15): 61%; growth at 0.5 µM (NCI-H322M): 83%; growth at 0.05 µM (TK-10): 98%; growth at 0.05 µM (OVCAR-5 [14]): 87%; growth at 0.05 µM (UACC-62 [15]): 93%; growth at 0.05 µM (SK-MEL-2 [16]): 115%; growth at 50 µM (BT-549 [17]): -57%; growth at 50 µM (OVCAR-5 [18]): -72%; growth at 50 µM (UACC-62 [19]): -72%; growth at 0.005 µM (BT-549 [20]): 103%; growth at 0.005 µM (SN12C): 96%; growth at 0.005 µM (OVCAR-8): 101%; growth at 0.005 µM (IGROV-1): 109%; growth at 0.005 µM (UACC-257 [21]): 94%; growth at 0.005 µM (LOX IMVI): 101%; growth at 0.005 µM (U-251): 97%
COc1cc(-c2nn(-c3cccc(NC(=O)Nc4ccc(Cl)c(Cl)c4)c3)cc2-c2ccncc2)ccc1Cl | -52 | -5 | 3 | -19 | -34 | 3 | 12 | 27 | -22 | 1 | -52 | -38 | 103 | 8 | 2 | 8 | 3 | -4 | 83 | 84 | growth at 0.5 µM (SK-MEL-28 [13]): 91%; growth at 0.5 µM (HCT-116): 78%; growth at 0.5 µM (HCT-15): 76%; growth at 0.5 µM (NCI-H322M): 89%; growth at 0.05 µM (TK-10): 103%; growth at 0.05 µM (OVCAR-5 [14]): 90%; growth at 0.05 µM (UACC-62 [15]): 94%; growth at 0.05 µM (SK-MEL-2 [16]): 112%; growth at 50 µM (BT-549 [17]): -3%; growth at 50 µM (OVCAR-5 [18]): 15%; growth at 50 µM (UACC-62 [19]): -63%; growth at 0.005 µM (BT-549 [20]): 104%; growth at 0.005 µM (SN12C): 94%; growth at 0.005 µM (OVCAR-8): 99%; growth at 0.005 µM (IGROV-1): 97%; growth at 0.005 µM (UACC-257 [21]): 98%; growth at 0.005 µM (LOX IMVI): 97%; growth at 0.005 µM (U-251): 96%
COc1cc(-c2nn(-c3cccc(NC(=O)Nc4cccc(C(F)(F)F)c4)c3)cc2-c2ccncc2)ccc1Cl | -64 | -34 | 1 | -17 | -52 | -8 | 16 | 5 | -42 | -18 | -67 | -44 | 94 | 1 | -54 | 7 | 3 | -14 | 80 | 79 | growth at 0.5 µM (SK-MEL-28 [13]): 87%; growth at 0.5 µM (HCT-116): 66%; growth at 0.5 µM (HCT-15): 66%; growth at 0.5 µM (NCI-H322M): 82%; growth at 0.05 µM (TK-10): 93%; growth at 0.05 µM (OVCAR-5 [14]): 86%; growth at 0.05 µM (UACC-62 [15]): 94%; growth at 0.05 µM (SK-MEL-2 [16]): 98%; growth at 50 µM (BT-549 [17]): -26%; growth at 50 µM (OVCAR-5 [18]): -43%; growth at 50 µM (UACC-62 [19]): -87%; growth at 0.005 µM (BT-549 [20]): 98%; growth at 0.005 µM (SN12C): 97%; growth at 0.005 µM (OVCAR-8): 99%; growth at 0.005 µM (IGROV-1): 100%; growth at 0.005 µM (UACC-257 [21]): 96%; growth at 0.005 µM (LOX IMVI): 95%; growth at 0.005 µM (U-251): 97%
